In patent US20230174493A1, “Solid Dispersions of Amorphous 3,4-Diphenyl-4,5-Dihydro-1H-Pyrazole Derivatives, Compositions Comprising them and Uses Thereof as Cannabinoid CB1 Receptor Inhibitors” (INVERSAGO PHARMA INC., priority 2020, published 2023):

Legend:
[1] = Pharmacokinetic properties in Beagle dogs, single oral dose compared with intravenous administration; conditions: dog, in vivo, 2 mg/kg, fasted
Procedure: Pharmacokinetic properties were measured in Beagle dogs. Administration was done orally and compared with intravenous administration (2 mg/kg, in DMSO/tetraglycol/PEG400/water, 10:20:25:45). Each formulation was tested as a single dose on three (3) animals except for F6(b), which was tested on five (5) animals. Dogs were sampled at times 0, 1 h, 4 h, 8 h, 12 h, 24 h, 36 h, 48 h, and 72 h to give full time-concentration profiles. All tests were carried out with fasted dogs except test on normal dogs using F-SEDDS, which was carried on fed dogs. The results are as presented as an average between the tested animals.

[2] = Oral bioavailability of crystalline form (development efforts)
[3] = Solubility of crystalline form (development efforts)

Work on `C/C(N)=N/C(=N\S(=O)(=O)c1ccc(C(F)(F)F)cc1)N1C[C@H](c2ccccc2)C(c2ccc(Cl)cc2)=N1` [Compound 1] yielded a C0 ([1]; i.v. 2 mg/kg in DMSO/tetraglycol/PEG400/water 10:20:25:45, Normal dogs (about 11 kg)) of 2220 ng/mL, a C0 ([1]; i.v. 2 mg/kg in DMSO/tetraglycol/PEG400/water 10:20:25:45, Small dogs (about 7.5 kg)) of 1820 ng/mL and an AUC(0-inf) ([1]; i.v. 2 mg/kg, Normal dogs (about 11 kg)) of 15400 ng·h/mL. The half-life ([1]; i.v. 2 mg/kg, Normal dogs (about 11 kg), read-out: T½ (converted)) was 5.88 h, the Oral bioavailability [2] was “very poor oral bioavailability” and the Solubility [3] was “essentially insoluble”.
